Reference: US20240360081A1, “SULFONAMIDE OREXIN RECEPTOR AGONISTS AND USES THEREOF” (Jazz Pharmaceuticals Ireland Limited, priority 2021, published 2024)

What follows are molecules tested against T1, human recombinant OX2 (hOX2) receptor expressed in CHO cells (Homo sapiens, UniProt O43614) (assay: IP-1 accumulation assay (IP-One HTRF) in hOX2-CHO cells). Conditions: 60 min at 37° C., 11 points CRC, response as % of maximal OX-A response.
T1 construct: host or cells: CHO cells (hOX2-CHO)
T1 sequence (O43614 1-444): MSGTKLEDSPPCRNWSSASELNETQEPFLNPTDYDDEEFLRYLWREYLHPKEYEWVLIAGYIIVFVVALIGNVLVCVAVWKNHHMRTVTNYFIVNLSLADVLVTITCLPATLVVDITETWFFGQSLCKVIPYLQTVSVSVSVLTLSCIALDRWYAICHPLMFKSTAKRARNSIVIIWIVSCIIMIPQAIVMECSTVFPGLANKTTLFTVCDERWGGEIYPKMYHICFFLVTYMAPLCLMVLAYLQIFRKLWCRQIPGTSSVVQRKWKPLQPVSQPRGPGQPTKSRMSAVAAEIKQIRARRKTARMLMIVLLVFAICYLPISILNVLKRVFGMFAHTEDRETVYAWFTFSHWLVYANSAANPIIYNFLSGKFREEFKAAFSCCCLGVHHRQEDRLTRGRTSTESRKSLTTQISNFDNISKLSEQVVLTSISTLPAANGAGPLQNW
Format: cell-based
In short: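 CHO cells expressing hOX2, 20,000 cells/well in HBSS with 20 mM HEPES pH 7.4, 50 mM LiCl, 0.1% BSA; 11-point compound series, 0.5% DMSO final, 60 min at 37 °C. IP-1 by HTRF (665/615 ratio) after 60 min at room temperature, as % of maximal OX-A response; EC50 by four-parameter logistic fit, mean of ≥2 experiments in duplicate.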

EC50, < 100 nM:
Cc1cc(C)c(=O)n(C(CNS(=O)(=O)C2CC2)CO[C@H]2CC[C@@H](c3cccc(F)c3)CC2)c1 (stereo partly drawn) [Example 2al, N-[2-(3,5-dimethyl-2-oxo-1,2-dihydropyridin-1-yl)-3-{[(CIS)-4-(3-fluorophenyl)cyclohexyl]oxy}propyl]cyclopropanesulfonamide]
Cc1cc(C)c(=O)n(C(CNS(=O)(=O)N(C)C)CO[C@H]2CC[C@@H](c3cccc(F)c3)CC2)c1 (stereo partly drawn) [Example 2aq, 1-{1-[(dimethylsulfamoyl)amino]-3-{[(CIS)-4-(3-fluorophenyl)cyclohexyl]oxy}propan-2-yl}-3,5-dimethyl-1,2-dihydropyridin-2-one]
Cc1cc(C)c(=O)n(C(CNS(=O)(=O)CF)CO[C@H]2CC[C@@H](c3cccc(F)c3)CC2)c1 (stereo partly drawn) [Example 2at, N-[2-(3,5-dimethyl-2-oxo-1,2-dihydropyridin-1-yl)-3-{[(CIS)-4-(3-fluorophenyl)cyclohexyl]oxy}propyl]-1-fluoromethanesulfonamide]
COCCS(=O)(=O)NCC(CO[C@H]1CC[C@@H](c2cccc(F)c2)CC1)n1cc(C)cc(C)c1=O (stereo partly drawn) [Example 2ax, N-[2-(3,5-dimethyl-2-oxo-1,2-dihydropyridin-1-yl)-3-{[(CIS)-4-(3-fluorophenyl)cyclohexyl]oxy}propyl]-2-methoxyethane-1-sulfonamide]
CCC[C@H]1CC[C@@H](OCC(CNS(=O)(=O)N(C)C)n2cc(C)cc(C)c2=O)CC1 (stereo partly drawn) [Example 2bb, 1-{1-[(dimethylsulfamoyl)amino]-3-{[(CIS)-4-propylcyclohexyl]oxy}propan-2-yl}-3,5-dimethyl-1,2-dihydropyridin-2-one]
Cc1cc(C)c(=O)n(C(CNS(C)(=O)=O)CO[C@H]2CC[C@@H](c3ccccc3)CC2)c1 (stereo partly drawn) [Example 2s, N-[2-(3,5-dimethyl-2-oxo-1,2-dihydropyridin-1-yl)-3-{[(CIS)-4-phenylcyclohexyl]oxy}propyl]methanesulfonamide]

EC50, > 10000 nM:
CS(=O)(=O)NCC(CO[C@H]1CC[C@@H](c2ccccc2)CC1)n1c(=O)ccc2ccccc21 (stereo partly drawn) [Example 2ak, N-[2-(2-oxo-1,2-dihydroquinolin-1-yl)-3-{[(CIS)-4-phenylcyclohexyl]oxy}propyl]methanesulfonamide]
Cc1cc(C)c(=O)n(C(CNS(C)(=O)=O)COC2CCN(c3ncc(F)cn3)CC2)c1 (centres unmarked) [Example 2ay, N-[2-(3,5-dimethyl-2-oxo-1,2-dihydropyridin-1-yl)-3-{[1-(5-fluoropyrimidin-2-yl)piperidin-4-yl]oxy}propyl]methanesulfonamide]
Cc1cc(C)c(=O)n(C(CNS(C)(=O)=O)COC2CCC3(CCOC3)CC2)c1 (centres unmarked) [Example 2bd, N-[2-(3,5-dimethyl-2-oxo-1,2-dihydropyridin-1-yl)-3-{2-oxaspiro[4.5]decan-8-yloxy}propyl]methanesulfonamide]
CS(=O)(=O)NCC(CO[C@H]1CC[C@@H](c2ccccc2)CC1)n1cc(C(F)(F)F)ccc1=O (stereo partly drawn) [Example 2l, N-{2-[2-oxo-5-(trifluoromethyl)-1,2-dihydropyridin-1-yl]-3-{[(CIS)-4-phenylcyclohexyl]oxy}propyl}methanesulfonamide]
CS(=O)(=O)NCC(CO[C@H]1CC[C@@H](c2ccccc2)CC1)n1ccc(C(F)(F)F)cc1=O (stereo partly drawn) [Example 2w, N-{2-[2-oxo-4-(trifluoromethyl)-1,2-dihydropyridin-1-yl]-3-{[(CIS)-4-phenylcyclohexyl]oxy}propyl}methanesulfonamide]
CS(=O)(=O)NCC(CO[C@H]1CC[C@@H](c2ccccc2)CC1)n1ccc(C#N)cc1=O (stereo partly drawn) [Example 2y, N-[2-(4-cyano-2-oxo-1,2-dihydropyridin-1-yl)-3-{[(CIS)-4-phenylcyclohexyl]oxy}propyl]methanesulfonamide]

EC50, 100 to 1000 nM:
Cc1cc(C)c(=O)n(C(CNS(=O)(=O)CC(F)F)CO[C@H]2CC[C@@H](c3cccc(F)c3)CC2)c1 (stereo partly drawn) [Example 2ao, N-[2-(3,5-dimethyl-2-oxo-1,2-dihydropyridin-1-yl)-3-{[(CIS)-4-(3-fluorophenyl)cyclohexyl]oxy}propyl]-2,2-difluoroethane-1-sulfonamide]
Cc1cc(C)c(=O)n(C(CNS(=O)(=O)CC(F)(F)F)CO[C@H]2CC[C@@H](c3cccc(F)c3)CC2)c1 (stereo partly drawn) [Example 2ap, N-[2-(3,5-dimethyl-2-oxo-1,2-dihydropyridin-1-yl)-3-{[(CIS)-4-(3-fluorophenyl)cyclohexyl]oxy}propyl]-2,2,2-trifluoroethane-1-sulfonamide]
Cc1cc(C)c(=O)n(C(CNS(=O)(=O)N(C)C)CO[C@H]2CC[C@@H](C3CC3)CC2)c1 (stereo partly drawn) [Example 2bc, 1-{1-[(dimethylsulfamoyl)amino]-3-{[(CIS)-4-cyclopropylcyclohexyl]oxy}propan-2-yl}-3,5-dimethyl-1,2-dihydropyridin-2-one]
Cc1ccc(=O)n(C(CNS(C)(=O)=O)CO[C@H]2CC[C@@H](c3ccccc3)CC2)c1 (stereo partly drawn) [Example 2i, N-[2-(5-methyl-2-oxo-1,2-dihydropyridin-1-yl)-3-{[(CIS)-4-phenylcyclohexyl]oxy}propyl]methanesulfonamide]
Cc1ccn(C(CNS(C)(=O)=O)CO[C@H]2CC[C@@H](c3ccccc3)CC2)c(=O)c1C (stereo partly drawn) [Example 2m, N-[2-(3,4-dimethyl-2-oxo-1,2-dihydropyridin-1-yl)-3-{[(CIS)-4-phenylcyclohexyl]oxy}propyl]methanesulfonamide]
Cc1cc(Br)cn(C(CNS(C)(=O)=O)CO[C@H]2CC[C@@H](c3ccccc3)CC2)c1=O (stereo partly drawn) [Example 2x, N-[2-(5-bromo-3-methyl-2-oxo-1,2-dihydropyridin-1-yl)-3-{[(CIS)-4-phenylcyclohexyl]oxy}propyl]methanesulfonamide]

EC50, 1000 to 10000 nM:
CS(=O)(=O)NCC(CO[C@H]1CC[C@@H](c2ccccc2)CC1)n1cccc(C(F)(F)F)c1=O (stereo partly drawn) [Example 2c, N-{2-[2-oxo-3-(trifluoromethyl)-1,2-dihydropyridin-1-yl]-3-{[(CIS)-4-phenylcyclohexyl]oxy}propyl}methanesulfonamide]
Cc1ccn(C(CNS(C)(=O)=O)CO[C@H]2CC[C@@H](c3ccccc3)CC2)c(=O)c1 (stereo partly drawn) [Example 2d, N-[2-(4-methyl-2-oxo-1,2-dihydropyridin-1-yl)-3-{[(CIS)-4-phenylcyclohexyl]oxy}propyl]methanesulfonamide]
CS(=O)(=O)NCC(CO[C@H]1CC[C@@H](c2ccccc2)CC1)n1cccc(C#N)c1=O (stereo partly drawn) [Example 2e, N-[2-(3-cyano-2-oxo-1,2-dihydropyridin-1-yl)-3-{[(CIS)-4-phenylcyclohexyl]oxy}propyl]methanesulfonamide]
CS(=O)(=O)NCC(CO[C@H]1CC[C@@H](c2ccccc2)CC1)n1cccc(F)c1=O (stereo partly drawn) [Example 2f, N-[2-(3-fluoro-2-oxo-1,2-dihydropyridin-1-yl)-3-{[(CIS)-4-phenylcyclohexyl]oxy}propyl]methanesulfonamide]
CS(=O)(=O)NCC(CO[C@H]1CC[C@@H](c2ccccc2)CC1)n1cc(Cl)ccc1=O (stereo partly drawn) [Example 2p, N-[2-(5-chloro-2-oxo-1,2-dihydropyridin-1-yl)-3-{[(CIS)-4-phenylcyclohexyl]oxy}propyl]methanesulfonamide]
CS(=O)(=O)NCC(CO[C@H]1CC[C@@H](c2ccccc2)CC1)n1cc(OC(F)F)ccc1=O (stereo partly drawn) [Example 2q, N-{2-[5-(difluoromethoxy)-2-oxo-1,2-dihydropyridin-1-yl]-3-{[(CIS)-4-phenylcyclohexyl]oxy}propyl}methanesulfonamide]
CS(=O)(=O)NCC(CO[C@H]1CC[C@@H](c2ccccc2)CC1)n1cc(C#N)ccc1=O (stereo partly drawn) [Example 2r, N-[2-(5-cyano-2-oxo-1,2-dihydropyridin-1-yl)-3-{[(CIS)-4-phenylcyclohexyl]oxy}propyl]methanesulfonamide]
COc1ccc(=O)n(C(CNS(C)(=O)=O)CO[C@H]2CC[C@@H](c3ccccc3)CC2)c1 (stereo partly drawn) [Example 2v, N-[2-(5-methoxy-2-oxo-1,2-dihydropyridin-1-yl)-3-{[(CIS)-4-phenylcyclohexyl]oxy}propyl]methanesulfonamide]
CS(=O)(=O)NCC(CO[C@H]1CC[C@@H](c2ccccc2)CC1)n1ccc2cccnc21 (stereo partly drawn) [Example 2z, N-(2-{1H-pyrrolo[2,3-b]pyridin-1-yl}-3-{[(CIS)-4-phenylcyclohexyl]oxy}propyl)methanesulfonamide]
Cn1cccc(C(CNS(C)(=O)=O)CO[C@H]2CC[C@@H](c3ccccc3)CC2)c1=O (stereo partly drawn) [Example 4, N-[2-(1-methyl-2-oxo-1,2-dihydropyridin-3-yl)-3-{[(CIS)-4-phenylcyclohexyl]oxy}propyl]methanesulfonamide]
Cc1cc(C(CNS(C)(=O)=O)CO[C@H]2CC[C@@H](c3ccccc3)CC2)c(=O)n(C)c1 (stereo partly drawn) [Example 5a, N-[2-(1,5-dimethyl-2-oxo-1,2-dihydropyridin-3-yl)-3-{[(CIS)-4-phenylcyclohexyl]oxy}propyl]methanesulfonamide]
